# According to US20240391923A1, “METHIONINE ADENOSYLTRANSFERASE 2A INHIBITOR FOR TREATING MTAP DELETION-TYPE CANCER” (SUZHOU GENHOUSE BIO CO., LTD., priority 2022, published 2024):
# Where two headings read alike, the source gives them in different places.
# Columns and labels:
# DOHH-2 cell strain = assay: Tumor cell proliferation inhibition assay (CellTiter-Glo), DOHH-2; assay type: cell-based; conditions: Homo sapiens, 120 h, DOHH-2 cells, 5-day treatment
# Method: After the HCT116-MTAP-knockout (−/−) cell strain, the HCT116-MTAP wild-type(+/+)-cell strain, the DOHH-2 cell strain, or the Hut-78 cell strain was treated with the test compound for 5 days, the ATP level was measured using a CellTiter-Glo kit of Promega to evaluate the inhibition of the test compound against the growth of the tumor cell strain.
# In the present application, the HCT116-MTAP-knockout (−/−) cell strain, the HCT116-MTAP wild-type (+/+)-cell strain, the DOHH-2 cell strain, or the Hut-78 cell strain was seeded into a 96-well cell culture plate at an appropriate cell density. After 24 h, the cells were treated using the test compounds diluted 1:3 fold at the highest concentration of 10 μM for 10 gradients, and a DMSO treatment group was set up separately. The cells were cultured in a 37° C./5% CO2 incubator for 5 days.
# Hut-78 cell strain = assay: Tumor cell proliferation inhibition assay (CellTiter-Glo), Hut-78; assay type: cell-based; conditions: Hut-78 cells, 5-day treatment
# Procedure, shortened: (§1)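 Cells were seeded, left 24 h, then exposed to test compounds in a 10-point, 1:3 dilution series from 10 μM top concentration alongside a DMSO group. After 5 days at 37° C./5% CO2, growth inhibition was judged from ATP level by CellTiter-Glo luminescence.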
# [1] = system: SDMA in human colon cancer cell line HCT116; assay: Cell symmetric dimethylarginine (SDMA) test, In-cell Western, HCT116 (MTAP wild-type); assay type: cell-based
# Procedure, shortened: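 HCT116 cells treated 4 days at 37° C with compound, top concentration 6 μM, 1:4 dilutions, 6 points, versus DMSO. Fixed cells stained for SDMA with DRAQ5 normalisation; 800/700 nm ratio after background subtraction fitted by non-linear regression for IC50.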
# [2] = system: SDMA in HCT116-MTAP-knockout cell line; assay: Cell symmetric dimethylarginine (SDMA) test, In-cell Western, HCT116-MTAP-knockout; assay type: cell-based; conditions: Homo sapiens, 96 h
# [3] = system: HCT116-MTAP wild-type (+/+)-cell strain; assay: Tumor cell proliferation inhibition assay (CellTiter-Glo), HCT116-MTAP wild-type (+/+); assay type: cell-based; conditions: Homo sapiens, 120 h, HCT116-MTAP wild-type (+/+) cells, 5-day treatment
# Procedure, shortened: as §1
# [4] = target: MAT2A recombinant protein (Homo sapiens, UniProt P31153); assay: MAT2A inhibitory activity (malachite green colorimetric enzyme assay); assay type: biochemical
# Sequence of MAT2A recombinant protein (P31153 whole entry): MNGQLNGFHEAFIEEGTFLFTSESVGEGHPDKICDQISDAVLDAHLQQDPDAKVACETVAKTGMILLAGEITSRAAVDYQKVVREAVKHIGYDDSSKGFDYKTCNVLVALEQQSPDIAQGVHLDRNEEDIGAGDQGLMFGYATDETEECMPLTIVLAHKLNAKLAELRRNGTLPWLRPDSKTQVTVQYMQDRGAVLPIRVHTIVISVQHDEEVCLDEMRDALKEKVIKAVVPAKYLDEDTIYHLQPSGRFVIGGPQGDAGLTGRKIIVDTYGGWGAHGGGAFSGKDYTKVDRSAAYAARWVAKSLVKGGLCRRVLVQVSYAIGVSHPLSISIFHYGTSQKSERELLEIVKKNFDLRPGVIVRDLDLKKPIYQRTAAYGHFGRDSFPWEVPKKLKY
# Procedure, shortened: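 Recombinant human MAT2A with L-methionine and ATP in 50 mM HEPES pH 7.5, 50 mM KCl, 10 mM MgCl2, 10 mM DTT, 60 min at room temperature. Phosphate released detected by malachite green reagent (15 min) at 630 nm. Ten-point 1:3 series from 1000 nM final; IC50 by variable-slope non-linear regression.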
# [5] = system: HCT116-MTAP-knockout (−/−) cell strain; assay: Tumor cell proliferation inhibition assay (CellTiter-Glo), HCT116-MTAP-knockout (-/-); assay type: cell-based; conditions: Homo sapiens, 120 h, HCT116-MTAP-knockout (−/−) cells, 5-day treatment
# Procedure, shortened: as §1
# [6] = Pharmacokinetic test in mice (IV and PO); assay type: in vivo; conditions: mouse, plasma, BALB/c mice; for half-life: read-out: T½ (converted); for Vd: read-out: Vz
# [7] = IC50 score, read-out: Tumor cell 5-day relative growth inhibition (DOHH-2) (nM), score
# [8] = IC50 value, read-out: Tumor cell 5-day relative growth inhibition (DOHH-2)
# [9] = IC50 score, read-out: Tumor cell 5-day relative growth inhibition (Hut-78) (nM), score
# [10] = IC50 value, read-out: Tumor cell 5-day relative growth inhibition (Hut-78)
# [11] = Homo sapiens, HCT-116, 96 h, IC50 score class, read-out: Cell 96 h SDMA Inhibition (HCT116-MTAP+/+) (score)
# [12] = Homo sapiens, HCT-116, 96 h, read-out: Cell 96 h SDMA inhibition (HCT116-MTAP+/+)
# [13] = IC50 score class, read-out: Cell 96 h SDMA Inhibition (HCT116-MTAP−/−) (score)
# [14] = read-out: Cell 96 h SDMA Inhibition (HCT116-MTAP−/−)
# [15] = IC50 score, read-out: Tumor cell 5-day relative growth inhibition (HCT116-MTAP+/+) (nM), score
# [16] = IC50 value, read-out: Tumor cell 5-day relative growth inhibition (HCT116-MTAP+/+)
# [17] = IC50 score class, read-out: MAT2A Inhibition (score)
# [18] = IC50 score, read-out: Tumor cell 5-day relative growth inhibition (HCT116-MTAP−/−) (nM), score
# [19] = IC50 value, read-out: Tumor cell 5-day relative growth inhibition (HCT116-MTAP−/−)
SMILES,IC50 (DOHH-2 cell strain; [7]),IC50 (DOHH-2 cell strain; [8]),"IC50 [1, 11]","IC50 [1, 12]","IC50 [2, 13]","IC50 [2, 14]","IC50 [4, 17]",IC50 ([4]; read-out: MAT2A Inhibition),also measured
Cc1ncccc1-n1c(=O)c2nn(C)cc2c2ccc(C(F)(F)F)nc21 [Compound B76],< 500 nM,82 nM,200 to 1000 nM,216 nM,< 200 nM,10 nM,,,IC50 (Hut-78 cell strain; [9]): < 500 nM; IC50 (Hut-78 cell strain; [10]): 10.6 nM
CCn1cc2c(n1)c(=O)n(-c1cccnc1)c1nc(C(F)(F)F)ccc21 [Compound B29],500 to 2000 nM,719 nM,200 to 1000 nM,599 nM,< 200 nM,90.4 nM,< 100 nM,18.5 nM,"IC50 [3, 15]: < 500 nM; IC50 [3, 16]: 437 nM; IC50 [5, 18]: < 500 nM; IC50 [5, 19]: 154 nM; AUC ([6]; IV 2 mg/kg): 1.86 µM·h; clearance ([6]; IV 2 mg/kg): 46.7 mL/min/kg; bioavailability ([6]; IV 2 mg/kg, PO 10 mg/kg): 95%; half-life ([6]; IV 2 mg/kg): 18 min; Vd ([6]; IV 2 mg/kg): 1.3 L/kg; AUC ([6]; PO 10 mg/kg): 9.32 µM·h; half-life ([6]; PO 10 mg/kg): 25.8 min"
CCn1cc2c(n1)c(=O)n(-c1cccnc1C(F)(F)F)c1cc(Cl)ccc21 [Compound B32],≥ 2000 nM,2700 nM,1000 to 3000 nM,2260 nM,< 200 nM,53.9 nM,< 100 nM,43.5 nM,
CCn1cc2c(n1)c(=O)n(-c1cncc(F)c1)c1cc(Cl)ccc21 [Compound B14],≥ 2000 nM,6680 nM,1000 to 3000 nM,,1000 to 3000 nM,,< 100 nM,66.9 nM,
Cc1c2c(nn1C)c(=O)n(-c1cccnc1)c1cc(Cl)ccc21 [Compound B16],500 to 2000 nM,811 nM,200 to 1000 nM,636 nM,< 200 nM,63.6 nM,< 100 nM,26.8 nM,
O=c1c2[nH]ncc2c2ccc(Cl)cc2n1-c1cccnc1 [Compound B13],500 to 2000 nM,979 nM,1000 to 3000 nM,2790 nM,< 200 nM,188 nM,< 100 nM,17.2 nM,"IC50 [3, 15]: 500 to 2000 nM; IC50 [3, 16]: 928 nM; IC50 [5, 18]: < 500 nM; IC50 [5, 19]: 282 nM"
CCn1nc2c(=O)n(-c3cccnc3)c3cc(Cl)ccc3c2c1C [Compound B17],< 500 nM,396 nM,200 to 1000 nM,635 nM,< 200 nM,51.5 nM,< 100 nM,24 nM,"AUC ([6]; IV 2 mg/kg): 3.46 µM·h; clearance ([6]; IV 2 mg/kg): 27.7 mL/min/kg; bioavailability ([6]; IV 2 mg/kg, PO 10 mg/kg): 127%; half-life ([6]; IV 2 mg/kg): 14.4 min; Vd ([6]; IV 2 mg/kg): 0.6 L/kg; AUC ([6]; PO 10 mg/kg): 22.5 µM·h; half-life ([6]; PO 10 mg/kg): 28.2 min"
CCn1nc2c(=O)n(-c3cccnc3)c3cc(Cl)ccc3c2c1Cl [Compound B20],≥ 2000 nM,2360 nM,> 3000 nM,5150 nM,200 to 1000 nM,521 nM,< 100 nM,37.2 nM,
Cn1cc2c(n1)c(=O)n(-c1cccnc1)c1cc(C(F)(F)F)ccc21 [Compound B69],500 to 2000 nM,1150 nM,1000 to 3000 nM,1470 nM,< 200 nM,109 nM,< 100 nM,28 nM,
Cc1ncccc1-n1c(=O)c2nn(C)cc2c2ccc(Cl)cc21 [Compound B65],< 500 nM,62.9 nM,,,,,< 100 nM,34.1 nM,"IC50 (Hut-78 cell strain; [9]): < 500 nM; IC50 (Hut-78 cell strain; [10]): 23.8 nM; IC50 ([1]; 96 h, IC50 score class, read-out: Cell 96 h SDMA Inhibition (HCT116-MTAP+/+) (score)): < 200 nM; IC50 ([1]; 96 h, read-out: Cell 96 h SDMA inhibition (HCT116-MTAP+/+)): 191 nM"
